Format in all cases: cell-based
The subject of one assay is A498. Put plainly: NCI in vitro mini panel, human cancer cell line growth inhibition. The settings on record: Renal A498, 48 hrs. Here is the method:
(§1) ED50 (P388) and GI50 (HTCL) identify the drug dose which reduces the percent tumor/cell growth to 50%. There is no mathematical difference between ED50 and GI50, both of which are calculated using the same formula. The only difference is historical usage.
(§2) TGI, means "Total Growth Inhibition", and identifies the drug dose needed to yield zero percent growth, i.e. there are just as many cells at the end of the experiment as were present at the beginning. Whether just as many cells were killed as were produced (steady state), or no growth occurred (total inhibition) cannot be distinguished.
(§3) LC50, means "Lethal Concentration 50%", and identifies the drug concentration which reduces to one-half of the cells originally present at the beginning of the experiment.
(§4) Each drug is tested at five (5) doses: 100--10-1-0.1--0.01 μg/mL. Percent Growths are calculated for each dose. The two (or three) doses with growth values above, below, (or near to) 50% growth are used to calculate the ED50 /GI50 values using a linear regression computation. If no dose yields a growth value under 50%, the results are expressed as: ED50 >(highest dose). If no dose yields growth higher than 50% growth, then ED50 <(lowest dose). Similar calculations are performed for the TGI at 0% growth, and at -50% growth for the LC50.
(§5) At the start of each experiment, cells from the in vitro cell cultures are inoculated into the appropriate tubes or microtiter plates. One set of control tubes/plates is immediately counted to determine the number of cells at the start of the experiment. This is the "baseline count", or "Tzero reading". At the end of the experiment (48 hrs later), a second set of control tubes/plates is analyzed to determine the "Control Growth" value. The growth (or death) of cells relative to the initial quantity of cells is used to define the "Percent of Growth."
(§6) Similarly, the compounds disclosed herein have also been tested against an NCI in vitro mini panel. For each of six cell lines GI50, TGI, and LC50 amounts were calculated for each compound. Each compound was also tested against the PS-388 cell line and for this test an ED50 was calculated.
(§7) The protocols followed, for the NCI minipanel are, except for the number of cell lines, those established by M. R. Boyd Ph.D., and well known to those of ordinary skill in the art. The procedure followed for the test against PS-388 Leukemia is the same that was followed in the superseded NCI P-388 screening test, which is also well known to those having ordinary skill in the art.

The next assay concerns KM20L2. The assay is described as above. As to conditions: Colon KM20L2, 48 hrs. How it is done: as §1, §2, §3, §4, §5, §6, §7
Another assay has as its system NCI-H460. The assay is described as above. As to conditions: Lung-NSC NCI-H460, 48 hrs. Here is the method: as §1, §2, §3, §4, §5, §6, §7
The test system of the next assay is OVCAR-3. The description is as above. The settings on record: Ovarian OVCAR-3, 48 hrs. How it is done: as §1, §2, §3, §4, §5, §6, §7
Another assay concerns SF-295. The assay is described as above. The settings on record: CNS SF-295, 48 hrs. How it is done: as §1, §2, §3, §4, §5, §6, §7
For a further assay, the system named is SK-MEL-5. The assay is described as above. As to conditions: Melanoma SK-MEL-5, 48 hrs. How it is done: as §1, §2, §3, §4, §5, §6, §7
A further assay has as its system PS-388. Put plainly: PS-388 mouse leukemia cell line test. The settings on record: Mouse Leukemia PS-388. Here is the method:
as §1, §4, §5, §6, §7

As usually defined, the TGI is the concentration at which net growth stops. A low value points to more potent growth arrest.

Turning to “L-Dolavalyl-L-Leucyl-N-methyl-(3R,4S,5S)-Dolaisoleuinyl-(2R,3R,4S)-Dolaproinyl-N-2(4-chlorophenyl) ethylamide [10d]”, the GI-50 worked out at 0.0059 µg/mL with A498; 0.00011 µg/mL in the assay on KM20L2; 0.0024 µg/mL in the assay on NCI-H460; 0.00029 µg/mL with OVCAR-3; 0.0017 µg/mL in the assay on SF-295; 0.00091 µg/mL in the assay with SK-MEL-5. In addition, the LC-50 in the assay on A498, in the assay with KM20L2, in the assay with NCI-H460, in the assay on OVCAR-3, with SF-295 and in the assay with SK-MEL-5 was more than 1 µg/mL throughout. Also, the TGI in the assay on A498 is 0.29 µg/mL; in the assay on KM20L2 it was 0.011 µg/mL; with NCI-H460 it was 0.0097 µg/mL; with OVCAR-3, 0.012 µg/mL; in the assay with SF-295, 0.1 µg/mL; in the assay on SK-MEL-5, more than 1 µg/mL. Further, the ED-50 in the assay with PS-388 was 0.00586 µg/mL.

“L-Dolavalyl-L-Leucyl-N-methyl-(3R,4S,5S)-Dolaisoleuinyl-(2R,3R,4S)-Dolaproinyl-N-2(3-chlorophenyl) ethylamide [10c]”: the GI-50 in the assay on A498 was determined as 0.0038 µg/mL; with KM20L2, 0.0020 µg/mL; in the assay with NCI-H460 it was 0.0029 µg/mL; in the assay on OVCAR-3, 0.0019 µg/mL; in the assay with SF-295 it was 0.0035 µg/mL; in the assay on SK-MEL-5, 0.0025 µg/mL. Further, the LC-50 with A498, in the assay on KM20L2, in the assay with NCI-H460, in the assay with OVCAR-3, in the assay with SF-295 and with SK-MEL-5 was more than 0.01 µg/mL in each case. Further, the TGI in the assay on A498 is more than 0.01 µg/mL; in the assay with KM20L2, more than 0.01 µg/mL; with NCI-H460 it was 0.0084 µg/mL; with OVCAR-3 it was more than 0.01 µg/mL; with SF-295, more than 0.01 µg/mL; in the assay on SK-MEL-5, more than 0.01 µg/mL. For the same substance, in the assay on PS-388, the ED-50 turned out to be 0.00314 µg/mL.

Regarding “L-Dolavalyl-L-Leucyl-N-methyl-(3R,4S,5S)-Dolaisoleuinyl-(2R,3R,4S)-Dolaproinyl-L-Proline N-2-benzothiazolamide [8f]”, the GI-50 with A498 is more than 0.01 µg/mL; with KM20L2, 0.0074 µg/mL; with NCI-H460, more than 0.01 µg/mL; in the assay on OVCAR-3, 0.0033 µg/mL; with SF-295 it was more than 0.01 µg/mL; with SK-MEL-5 it was 0.0043 µg/mL. In addition, the LC-50 in the assay with A498, in the assay with KM20L2, in the assay on NCI-H460, with OVCAR-3, in the assay with SF-295 and in the assay on SK-MEL-5 was more than 0.01 µg/mL throughout. Besides, the TGI in the assay with A498, in the assay with KM20L2, in the assay on NCI-H460, in the assay on OVCAR-3, with SF-295 and in the assay with SK-MEL-5 was more than 0.01 µg/mL in each case. For the same substance, the ED-50 in the assay on PS-388 worked out at 0.00405 µg/mL.

(Values after US5530097A, “Human cancer inhibitory peptide amides” (Arizona Board of Regents acting on behalf of Arizona State …, priority 1994, dated 1996).)
